Starred links: 1 amine or outer side, 2 acyl side, 3 side chain; linkers in the order of their positions; H or OH if unused. Positions of bridges follow the written chain, without caps; N, C: chain ends. Non-standard residues stand in square brackets, D forms with d. Residues, ends and D or L forms follow the SMILES beside them. *: point of attachment. X33 = C[N+](C)(C)CCCCc1cn(-c2ccc(C[C@H](N[*:1])C(=O)[*:2])cc2)nn1; Me3N+(CH2)2O(CH2)2O(CH2)2CO = C[N+](C)(C)CCOCCOCCC(=O)*; X67 = COCc1cn(-c2ccc(C[C@H](N[*:1])C(=O)[*:2])cc2)nn1; Trp(7-Me) = Cc1cccc2c(C[C@H](N)C(=O)O)c[nH]c12; 2Nal = N[C@@H](Cc1ccc2ccccc2c1)C(=O)O; X74 = C[N+]1(CCOCCOCC*)CCC(F)(F)CC1; X26 = C[N+](C)(C)CCCCc1cn(CC*)nn1; X32 = C(CCC*)CC[N+]12CCN(CC1)CC2; 3Pal = N[C@@H](Cc1cccnc1)C(=O)O; Lys(Me) = CNCCCC[C@H](N)C(=O)O; Pen = CC(C)(S)[C@H](N)C(=O)O; X70 = C[N+](C)(C)CCO/N=C\C*; X85 = C[N+](C)(C)CCO/N=C/C*; X8 = C[N+](C)(C)CCCCCCCC*; Thp = NC1(C(=O)O)CCOCC1; Sar = CNCC(=O)O
Assay: Exposed Polar Surface Area (EPSA)
Assay type: physicochemical
Conditions: SFC on Chirex 3014 column; sample 1 mM DMSO stock; read-out: EPSA
Method in brief: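 Compounds, as 1 mM DMSO stock, were injected in duplicate onto an SFC Chirex 3014 column at 35 °C and eluted with a CO2/methanol (20 mM ammonium formate) gradient. EPSA values in Å^2 were derived from retention times using a linear fit to eight calibration standards, reinjected every 20 compounds.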

Row | EPSA [A^2] | Compound
1 | 151 | CC(=O)N(C)CCCC[C@@H]1NC(=O)[C@H](Cc2c[nH]c3c(C)cccc23)NC(=O)[C@H]([C@@H](C)O)NC(=O)[C@H](CC(=O)N(C)C)NC(=O)[C@@H](NC(=O)CCOCCOCC[N+](C)(C)C)C(C)(C)SSC(C)(C)[C@@H](C(=O)N[C@@H](Cc2ccc(OCCn3cc(CCCC[N+](C)(C)C)nn3)cc2)C(=O)N[C@@H](Cc2ccc3ccccc3c2)C(=O)NC2(C(=O)N[C@@H](CCCCN(C)C(C)=O)C(=O)N[C@@H](CC(N)=O)C(=O)N[C@@H](Cc3cccnc3)C(=O)N(C)CC(=O)N(C)C)CCOCC2)NC1=O [compound 284, cPEG3aCO-Pen(3)-N(N(Me)2)-T-7MeW-K(NMeAc)-Pen(3)-Y(OTzlTMA4)-2Nal-THP-K(NMeAc)-N-3Pya-Sar-CON(Me)2] ({Me3N+(CH2)2O(CH2)2O(CH2)2CO}-[Pen]D(NMe2)T[Trp(7-Me)][Lys(Me)](Ac)[Pen]Y(X26)[2Nal][Thp][Lys(Me)](Ac)N[3Pal][Sar]-NMe2; disulfide 1-6)
2 | 152 | CC(=O)N(C)CCCC[C@@H]1NC(=O)[C@H](Cc2c[nH]c3c(C)cccc23)NC(=O)[C@H]([C@@H](C)O)NC(=O)[C@H](CC(=O)N(C)C)NC(=O)[C@@H](NC(=O)CCOCCOCC[N+](C)(C)C)C(C)(C)SSC(C)(C)[C@@H](C(=O)N[C@@H](Cc2ccc(OCCCCCC[N+]34CCN(CC3)CC4)cc2)C(=O)N[C@@H](Cc2ccc3ccccc3c2)C(=O)NC2(C(=O)N[C@@H](CCCCN(C)C(C)=O)C(=O)N[C@@H](CC(N)=O)C(=O)N[C@@H](Cc3cccnc3)C(=O)N(C)CC(=O)N(C)C)CCOCC2)NC1=O [compound 292, cPEG3aCO-Pen(3)-N(N(Me)2)-T-7MeW-K(NMeAc)-Pen(3)-Diazabiclyclooctane6F-2Nal-THP-K(NMeAc)-N-3Pya-Sar-CON(Me)2] ({Me3N+(CH2)2O(CH2)2O(CH2)2CO}-[Pen]D(NMe2)T[Trp(7-Me)][Lys(Me)](Ac)[Pen]Y(X32)[2Nal][Thp][Lys(Me)](Ac)N[3Pal][Sar]-NMe2; disulfide 1-6)
3 | 150 | CC(=O)N(C)CCCC[C@@H]1NC(=O)[C@H](Cc2c[nH]c3c(C)cccc23)NC(=O)[C@H]([C@@H](C)O)NC(=O)[C@H](CC(=O)N(C)C)NC(=O)[C@@H](NC(=O)CCOCCOCC[N+](C)(C)C)C(C)(C)SSC(C)(C)[C@@H](C(=O)N[C@@H](Cc2ccc(OCCCCCCCC[N+](C)(C)C)cc2)C(=O)N[C@@H](Cc2ccc3ccccc3c2)C(=O)NC2(C(=O)N[C@@H](CCCCN(C)C(C)=O)C(=O)N[C@@H](CC(N)=O)C(=O)N[C@@H](Cc3cccnc3)C(=O)N(C)CC(=O)N(C)C)CCOCC2)NC1=O [compound 295, cPEG3aCO-Pen(3)-N(N(Me)2)-T-7MeW-K(NMeAc)-Pen(3)-TMA8F-2Nal-THP-K(NMeAc)-N-3Pya-Sar-CON(Me)2] ({Me3N+(CH2)2O(CH2)2O(CH2)2CO}-[Pen]D(NMe2)T[Trp(7-Me)][Lys(Me)](Ac)[Pen]Y(X8)[2Nal][Thp][Lys(Me)](Ac)N[3Pal][Sar]-NMe2; disulfide 1-6)
4 | 149 | CC(=O)N(C)CCCC[C@@H]1NC(=O)[C@H](Cc2c[nH]c3c(C)cccc23)NC(=O)[C@H]([C@@H](C)O)NC(=O)[C@H](CC(=O)N(C)C)NC(=O)[C@@H](NC(=O)CCOCCOCC[N+](C)(C)C)C(C)(C)SSC(C)(C)[C@@H](C(=O)N[C@@H](Cc2ccc(OCCOCCOCC[N+]3(C)CCC(F)(F)CC3)cc2)C(=O)N[C@@H](Cc2ccc3ccccc3c2)C(=O)NC2(C(=O)N[C@@H](CCCCN(C)C(C)=O)C(=O)N[C@@H](CC(N)=O)C(=O)N[C@@H](Cc3cccnc3)C(=O)N(C)CC(=O)N(C)C)CCOCC2)NC1=O [compound 298, cPEG3aCO-Pen(3)-N(N(Me)2)-T-7MeW-K(NMeAc)-Pen(3)-dFPPEG3F-2Nal-THP-K(NMeAc)-N-3Pya-Sar-CON(Me)2] ({Me3N+(CH2)2O(CH2)2O(CH2)2CO}-[Pen]D(NMe2)T[Trp(7-Me)][Lys(Me)](Ac)[Pen]Y(X74)[2Nal][Thp][Lys(Me)](Ac)N[3Pal][Sar]-NMe2; disulfide 1-6)
5 | 155 | CC(=O)N(C)CCCC[C@@H]1NC(=O)[C@H](Cc2c[nH]c3c(C)cccc23)NC(=O)[C@H]([C@@H](C)O)NC(=O)[C@H](CC(=O)N(C)C)NC(=O)[C@@H](NC(=O)CCOCCOCC[N+](C)(C)C)C(C)(C)SSC(C)(C)[C@@H](C(=O)N[C@@H](Cc2ccc(-n3cc(CCCC[N+](C)(C)C)nn3)cc2)C(=O)N[C@@H](Cc2ccc3ccccc3c2)C(=O)NC2(C(=O)N[C@@H](CCCCN(C)C(C)=O)C(=O)N[C@@H](CC(N)=O)C(=O)N[C@@H](Cc3cccnc3)C(=O)N(C)CC(=O)N(C)C)CCOCC2)NC1=O [compound 302, cPEG3aCO-Pen(3)-N(N(Me)2)-T-7MeW-K(NMeAc)-Pen(3)-F(4TzlTMA4)-] ({Me3N+(CH2)2O(CH2)2O(CH2)2CO}-[Pen]D(NMe2)T[Trp(7-Me)][Lys(Me)](Ac)[Pen][X33][2Nal][Thp][Lys(Me)](Ac)N[3Pal][Sar]-NMe2; disulfide 1-6)
6 | 152 | COCc1cn(-c2ccc(C[C@H](NC(=O)[C@H]3NC(=O)[C@H](CCCCN(C)C(C)=O)NC(=O)[C@H](Cc4c[nH]c5c(C)cccc45)NC(=O)[C@H]([C@@H](C)O)NC(=O)[C@H](CC(=O)N(C)C)NC(=O)[C@@H](NC(=O)CCOCCOCC[N+](C)(C)C)C(C)(C)SSC3(C)C)C(=O)N[C@@H](Cc3ccc4ccccc4c3)C(=O)NC3(C(=O)N[C@@H](CCCCN(C)C(C)=O)C(=O)N[C@@H](CC(N)=O)C(=O)N[C@@H](Cc4cccnc4)C(=O)N(C)CC(=O)N(C)C)CCOCC3)cc2)nn1 [compound 303, cPEG3aCO-Pen(3)-N(N(Me)2)-T-7MeW-K(NMeAc)-Pen(3)-F(4TzlMME)-2Nal-THP-K(NMeAc)-N-3Pya-Sar-CON(Me)2] ({Me3N+(CH2)2O(CH2)2O(CH2)2CO}-[Pen]D(NMe2)T[Trp(7-Me)][Lys(Me)](Ac)[Pen][X67][2Nal][Thp][Lys(Me)](Ac)N[3Pal][Sar]-NMe2; disulfide 1-6)
7 | 153 | CC(=O)N(C)CCCC[C@@H]1NC(=O)[C@H](Cc2c[nH]c3c(C)cccc23)NC(=O)[C@H]([C@@H](C)O)NC(=O)[C@H](CC(=O)N(C)C)NC(=O)[C@@H](NC(=O)CCOCCOCC[N+](C)(C)C)C(C)(C)SSC(C)(C)[C@@H](C(=O)N[C@@H](Cc2ccc(OC/C=N/OCC[N+](C)(C)C)cc2)C(=O)N[C@@H](Cc2ccc3ccccc3c2)C(=O)NC2(C(=O)N[C@@H](CCCCN(C)C(C)=O)C(=O)N[C@@H](CC(N)=O)C(=O)N[C@@H](Cc3cccnc3)C(=O)N(C)CC(=O)N(C)C)CCOCC2)NC1=O [compound 305, cPEG3aCO-Pen(3)-N(N(Me)2)-T-7MeW-K(NMeAc)-Pen(3)-Y(OEOXlMECh)-2Nal-THP-K(NMeAc)-N-3Pya-Sar-CON(Me)2] ({Me3N+(CH2)2O(CH2)2O(CH2)2CO}-[Pen]D(NMe2)T[Trp(7-Me)][Lys(Me)](Ac)[Pen]Y(X85)[2Nal][Thp][Lys(Me)](Ac)N[3Pal][Sar]-NMe2; disulfide 1-6 (inferred))
8 | 153 | CC(=O)N(C)CCCC[C@@H]1NC(=O)[C@H](Cc2c[nH]c3c(C)cccc23)NC(=O)[C@H]([C@@H](C)O)NC(=O)[C@H](CC(=O)N(C)C)NC(=O)[C@@H](NC(=O)CCOCCOCC[N+](C)(C)C)C(C)(C)SSC(C)(C)[C@@H](C(=O)N[C@@H](Cc2ccc(OC/C=N\OCC[N+](C)(C)C)cc2)C(=O)N[C@@H](Cc2ccc3ccccc3c2)C(=O)NC2(C(=O)N[C@@H](CCCCN(C)C(C)=O)C(=O)N[C@@H](CC(N)=O)C(=O)N[C@@H](Cc3cccnc3)C(=O)N(C)CC(=O)N(C)C)CCOCC2)NC1=O [compound 306, cPEG3aCO-Pen(3)-N(N(Me)2)-T-7MeW-K(NMeAc)-Pen(3)-Y(OZOXlMECh)-2Nal-THP-K(NMeAc)-N-3Pya-Sar-CON(Me)2] ({Me3N+(CH2)2O(CH2)2O(CH2)2CO}-[Pen]D(NMe2)T[Trp(7-Me)][Lys(Me)](Ac)[Pen]Y(X70)[2Nal][Thp][Lys(Me)](Ac)N[3Pal][Sar]-NMe2; disulfide 1-6)

— US20260022143A1, “Cyclic Peptide Inhibitors of IL-23” (JANSSEN PHARMACEUTICA NV, priority 2022, published 2026)
